Experimental data taken from US20090227619A1, “Harmine derivatives, intermediates used in their preparations, preparation processes and use therefo” (priority 2003, published 2009).
Read-outs that look alike come from different tables or passages of the source.

Tests used:
[1] = tested on: HepG2; test: In vitro cytotoxicity, IC50 by MTT method, HepG2; format: cell-based, human; settings: Homo sapiens; HepG2 cell strain; read-out: IC50 HepG2
Outline: (§1)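 Cells in RPMI1640 with 10% FBS at 37° C, 5% CO2 were seeded at 10^5/ml and exposed to a compound concentration gradient for 48 h, at least three replicates, solvent controls.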

[2] = tested on: Lewis lung cancer; settings: Lewis lung cancer; for Body weight of the animals, end, First time / Body weight of the animals, end, Second time: ip × 10qd; for Inhibition rate (%) Lewis cancer: comparison table 43, in vivo;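 for all read-outs here: mice implanted subcutaneously in the axilla with Lewis lung tumor cells, treated starting the following day, killed roughly three weeks after implantation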
[3] = tested on: Bel-7402; test: In vitro cytotoxicity, IC50 by MTT method, Bel-7402; format: cell-based; settings: Homo sapiens, Bel-7402; Bel7402 cell strain; read-out: IC50 Bel7402
Outline: as §1

[4] = tested on: S180 sarcoma; settings: S180 sarcoma; for Body weight of the animals, beginning, First time / Body weight of the animals, end, First time / Inhibition rate, First time / Weight of the tumor X ± SD, First time / Body weight of the animals, beginning, Second time / Body weight of the animals, end, Second time / Inhibition rate, Second time: ip × 10qd; for Inhibition rate (%) S180 sarcomata: comparison table 43, in vivo
Excerpt: There was one group of 8 to 10 mice C57BL/6 and Kunming mice for the anti-tumor tests and two groups of mice for negative control.
(3) Sources of tumors: Lewis lung cancer cells and S180 sarcoma in mice, which were sub-cultured and maintained by Pharmacological Center of Shanghai Pharmaceutical Industrial Research Institute.
All samples were weighed and added a small amount of Tween-80 to facilitate dissolution during the experiment, and then 0.5% CMC-Na solution was gradually added to achieve the desired concentration. The volume for experiment was 0.5 ml/20 g mouse.
The medicaments were intraperitoneally administered once a day continuously for 10 days.
For the negative control group, a vehicle of the same volume was intraperitoneally administered once a day continuously for 10 days. For the positive control group, CTX was administered in the dosage of 30 mg/kg once a day continuously for 7 days.
In vivo anti-tumor subcutaneous vaccination in the axilla was employed. Wildly grown tumor source was taken under sterile conditions to form a cell suspension of about 1×10^7 ml by homogenization method. For a corresponding mouse host, the suspension was injected in the axilla in an amount of 0.2 ml/mouse. The next day, the medicaments were administered according to the design of the tests. About three weeks later, all the groups of animals were executed. The tumors were taken from the animals and weighed. The inhibition rate of tumors was calculated according to the following formula:
T: average tumor weight of treated group; C: average tumor weight of negative control group.

[5] = tested on: NIH3T3; test: In vitro cytotoxicity, IC50 by MTT method, NIH3T3; format: cell-based; settings: Mus musculus; NIH3T3 cell strain; read-out: IC50 NIH3T3
Outline: as §1

[6] = tested on: PLA-801; test: In vitro cytotoxicity, IC50 by MTT method, PLA-801; format: cell-based; settings: PLA-801 cell strain; read-out: IC50 PLA-801
Outline: as §1

[7] = in vivo; settings: both, Kunming, mouse, ip
[8] = tested on: CT-DNA; test: DNA thermal denaturation, determination of ΔTm; format: binding; settings: 20 uM compound, Tm of CT-DNA alone 61° C.
Outline: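 CT-DNA at 15 ug/ml in PE buffer (1 mM Na2HPO4, 0.1 mM EDTA, pH 7.6), heated at 0.5° C./min from 25 to 95° C. Tm taken as hyperchromic transition mid-point; ΔTm = Tm of drug-DNA complex minus Tm of DNA alone, mean of three runs.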

[9] = tested on: Lovo; test: In vitro cytotoxicity, IC50 by MTT method, Lovo; format: cell-based; settings: Homo sapiens; Lovo cell strain; read-out: IC50 Lovo
Outline: as §1

[10] = tested on: Hela; test: In vitro cytotoxicity, IC50 by MTT method, Hela; format: cell-based; settings: Homo sapiens; Hela cell strain; read-out: IC50 Hela
Outline: as §1

[11] = tested on: Kunming mice; settings: for Death rate: single i.p.
[12] = tested on: BGC-823; test: In vitro cytotoxicity, IC50 by MTT method, BGC-823; format: cell-based; settings: Homo sapiens, BGC-823; BGC823 cell strain; read-out: IC50 BGC823
Outline: as §1

[13] = CT-DNA 15 ug/ml, PE buffer pH 7.6
[14] = 50% male 50% female mice, 240 mg/kg
[15] = 50% male 50% female mice, 300 mg/kg
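Throughout, for Death rate: acute toxicity in Kunming mice grouped by sex, one intraperitoneal dose at five graded levels in Tween-80 plus 0.5% CMC-Na, deaths monitored over two weeks.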
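Throughout, for LD50: acute toxicity in Kunming mice grouped by sex, one intraperitoneal dose at five graded levels in Tween-80 plus 0.5% CMC-Na, deaths monitored over two weeks.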
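Throughout, for MTD: acute toxicity in Kunming mice grouped by sex, one intraperitoneal dose at five graded levels in Tween-80 plus 0.5% CMC-Na, deaths monitored over two weeks.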
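Throughout, for Sex: acute toxicity in Kunming mice grouped by sex, one intraperitoneal dose at five graded levels in Tween-80 plus 0.5% CMC-Na, deaths monitored over two weeks.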

## OCc1cc2c3ccccc3n(Cc3ccccc3)c2cn1 [Compound 42, 9-benzyl-3-hydroxymethyl-β-carboline]
[1]
  IC50: 90 µM
[2]; Dosage 50 (mg/ml)
  Body weight of the animals, end, First time: 24.7 g
  Body weight of the animals, end, Second time: 24.7 g
[2]; Dosage 50, ip × 10qd
  Body weight of the animals, beginning, First time: 20.0 g
  Inhibition rate, First time: 22.22%
  Weight of the tumor X ± SD, First time: 2.14 ± 0.26 g
  Body weight of the animals, beginning, Second time: 19.1 g
  Inhibition rate, Second time: 26.96%
  Weight of the tumor X ± SD, Second time: 1.89 ± 0.14 g
[2]; Dosage 100 (mg/ml)
  Body weight of the animals, end, First time: 25.1 g
  Body weight of the animals, end, Second time: 25.1 g
[2]; Dosage 100, ip × 10qd
  Body weight of the animals, beginning, First time: 20.3 g
  Inhibition rate, First time: 33.33%
  Weight of the tumor X ± SD, First time: 1.62 ± 0.12 g
  Body weight of the animals, beginning, Second time: 18.9 g
  Inhibition rate, Second time: 34.47%
  Weight of the tumor X ± SD, Second time: 1.92 ± 0.26 g
[2]
  Inhibition rate (%) Lewis cancer: 34.47%
[3]
  IC50: 110 µM
[4]; Dosage 50 (mg/ml)
  Body weight of the animals, beginning, First time: 19.5 g
  Body weight of the animals, end, First time: 24.7 g
  Inhibition rate, First time: 19.10%
  Weight of the tumor X ± SD, First time: 2.16 ± 0.38 g
  Body weight of the animals, beginning, Second time: 18.4 g
  Body weight of the animals, end, Second time: 25.6 g
  Inhibition rate, Second time: 20.74%
[4]; Dosage 50, ip × 10qd
  Weight of the tumor X ± SD, Second time: 2.14 ± 0.23 g
[4]; Dosage 100 (mg/ml)
  Body weight of the animals, beginning, First time: 19.2 g
  Body weight of the animals, end, First time: 24.3 g
  Inhibition rate, First time: 28.09%
  Weight of the tumor X ± SD, First time: 1.92 ± 0.25 g
  Body weight of the animals, beginning, Second time: 18.9 g
  Body weight of the animals, end, Second time: 25.1 g
  Inhibition rate, Second time: 25.15%
[4]; Dosage 100, ip × 10qd
  Weight of the tumor X ± SD, Second time: 2.02 ± 0.36 g
[4]
  Inhibition rate (%) S180 sarcomata: 28.09%
[5]
  IC50: 90 µM
[6]
  IC50: 160 µM
[7]
  LD50 at 2 weeks: 247 mg/kg
[8]; [13]
  ΔTm: −0.3 °C
[8]; CT-DNA thermal denaturation
  ΔTm: −0.3 °C
[9]
  IC50: 100 µM
[10]
  IC50: 120 µM
[11]; [14]
  Death rate: 50
[11]; [15]
  Death rate: 80
[11]; female mice, 240 mg/kg
  Death rate: 60
[11]; female mice, 300 mg/kg
  Death rate: 80
[11]; male mice, 240 mg/kg
  Death rate: 40
[11]; male mice, 300 mg/kg
  Death rate: 80
[11]; mouse, in vivo, ip
  LD50: 214 to 286 mg/kg
[12]
  IC50: 110 µM

## c1ccc(Cn2c3ccccc3c3ccncc32)cc1 [Compound 84, 9-Benzyl-β-carboline]
[1]
  IC50: 110 µM
[2]; Dosage 50 (mg/ml)
  Body weight of the animals, end, First time: 24.1 g
  Body weight of the animals, end, Second time: 25.2 g
[2]; Dosage 50, ip × 10qd
  Body weight of the animals, beginning, First time: 19.0 g
  Inhibition rate, First time: 27.09%
  Weight of the tumor X ± SD, First time: 1.83 ± 0.11 g
  Body weight of the animals, beginning, Second time: 19.7 g
  Inhibition rate, Second time: 30.93%
  Weight of the tumor X ± SD, Second time: 1.63 ± 0.16 g
[2]; Dosage 100 (mg/ml)
  Body weight of the animals, end, First time: 24.2 g
  Body weight of the animals, end, Second time: 24.7 g
[2]; Dosage 100, ip × 10qd
  Body weight of the animals, beginning, First time: 18.5 g
  Inhibition rate, First time: 35.06%
  Weight of the tumor X ± SD, First time: 1.63 ± 0.11 g
  Body weight of the animals, beginning, Second time: 19.4 g
  Inhibition rate, Second time: 37.29%
  Weight of the tumor X ± SD, Second time: 1.48 ± 0.15 g
[2]
  Inhibition rate (%) Lewis cancer: 37.29%
[3]
  IC50: 80 µM
[4]; Dosage 50 (mg/ml)
  Body weight of the animals, beginning, First time: 19.6 g
  Body weight of the animals, end, First time: 26.8 g
  Inhibition rate, First time: 29.47%
  Weight of the tumor X ± SD, First time: 2.01 ± 0.24 g
  Body weight of the animals, beginning, Second time: 20.4 g
  Body weight of the animals, end, Second time: 25.4 g
  Inhibition rate, Second time: 31.23%
[4]; Dosage 50, ip × 10qd
  Weight of the tumor X ± SD, Second time: 1.96 ± 0.16 g
[4]; Dosage 100 (mg/ml)
  Body weight of the animals, beginning, First time: 19.7 g
  Body weight of the animals, end, First time: 26.4 g
  Inhibition rate, First time: 37.19%
  Weight of the tumor X ± SD, First time: 1.79 ± 0.27 g
  Body weight of the animals, beginning, Second time: 20.2 g
  Body weight of the animals, end, Second time: 25.0 g
  Inhibition rate, Second time: 37.19%
[4]; Dosage 100, ip × 10qd
  Weight of the tumor X ± SD, Second time: 1.79 ± 0.16 g
[4]
  Inhibition rate (%) S180 sarcomata: 37.19%
[5]
  IC50: 110 µM
[6]
  IC50: 120 µM
[7]
  MTD at 2 weeks: 240 mg/kg
[8]; [13]
  ΔTm: 1.5 °C
[8]; CT-DNA thermal denaturation
  ΔTm: 1.5 °C
[9]
  IC50: 120 µM
[10]
  IC50: 50 µM
[11]; [14]
  Death rate: 0
[11]; [15]
  Death rate: 30
[11]; both, Kunming, mouse, in vivo, ip, 2 weeks
  Sex: 240
[11]; female mice, 240 mg/kg
  Death rate: 0
[11]; female mice, 300 mg/kg
  Death rate: 40
[11]; male mice, 240 mg/kg
  Death rate: 0
[11]; male mice, 300 mg/kg
  Death rate: 20
[12]
  IC50: 70 µM
